According to EP4458352A1, “EICOSAPENTAENOIC ACID ESTER DERIVATIVES FOR THE TREATMENT OF OBESITY” (Technische Universität Dresden, priority 2023, dated 2024):

Key:
[1] = tested on: NCI-H295R cells; assay: Lipidomic analysis (LC-MS/MS) of mitochondrial fractions of NCI-H295R cells treated with SC-26196; type: cell-based, Human; settings: SC-26196 10 µM, 18 h vs DMSO
Protocol: NCI-H295R cells (obtained from ATCC Cat# CRL-2128) were maintained in DMEM/F12 medium supplemented with 2.5 % Nu-Serum type I (Corning), 1 % Insulin Transferrin Selenium (ITS; Gibco), 50 U/mL penicillin and 50 µg/mL streptomycin. They were treated for 18 h with 10 µM SC-26196 or DMSO. In some experiments, NCI-H295R cells were treated or not for 48 h 66 µM EPA and in the last 24 h they were stimulated or not with forskolin (10 µM; Sigma-Aldrich).
Cells were trypsinized and pelleted by centrifugation (500xg, 5 min, 4 °C). The cells were gently resuspended in homogenization buffer (200 mM mannitol, 50 mM sucrose, 10 mM KCI, […] 25 mM HEPES, pH 7.4, 1 µM aprotinin, 10 µM leupeptin, 20 µM PMSF) and homogenized on ice with 20 strokes of tight Dounce homogenizer. The samples were then centrifuged (800xg, 10 min, 4 °C) to pellet the nuclei. The supernatant was mixed with iodixanol solution (Optiprep, Sigma-Aldrich) to a final concentration of 20 %. The samples were placed at the bottom of a tube and overlaid with 500 µl iodixanol solutions (18 %, 16 %, 14 %, 12 %, 10 %, 5 %) and finally with 500 µl of HBS (50 mM HEPES, 150 mM NaCl, pH 7.4). The samples were centrifuged in Beckman SW60Ti swing-out rotor (45,000 rpm, 5 h, 4 °C). After centrifugation fifteen 280 µl aliquots were collected from top of the tubes.
Fractions 10-12 (SDHB-positive) and 4-5 (HSL-positive) were considered as mitochondrial and lipid droplet fractions, respectively. Protein concentration was measured in the mitochondrial and lipid droplet pools with the BCA Protein Assay Kit (Thermo Fisher) and fractions were analyzed for cholesterol and CE concentrations.
Fractions containing mitochondria were combined and extracted with three volumes of ice-cold chloroform/methanol (10:1, v/v, both containing 0.1 % butylated hydroxytoluene (Merck, ≥99 %)). Samples were incubated on ice for 15 min, before the organic phase was collected after centrifugation (5 min, 5,000 × g). The aqueous phase was re-extracted with two volumes chloroform/methanol as described above. Combined organic phases were dried in vacuo. Methanol (ULC-MS grade, Biosolve B.V.) and chloroform (EMSURE ACS, ISO, Reag. Ph Eur; Supleco) were of highest purity.
Lipid extracts were dissolved in 50 µL 2-propanol (ULC/MS-CC/SFC grade, >99.95 %; Biosolve B.V.) and analyzed by LC-MS/MS. Lipids (2.5 µL loaded in positive mode, 5 µL in negative mode) were separated by reverse phase chromatography (Accucore C30 column; 150 mm × 2.1 mm 2.6 µM 150 Å, Thermo Fisher Scientific) using a Vanquish Horizon UHPLC system (Thermo Fisher Scientific) coupled on-line to a Q Exactive Plus Hybrid Quadrupole Orbitrap mass spectrometer (Thermo Fisher Scientific, Bremen, Germany) equipped with a HESI source. Column was operated at 50 °C and flow rate of 0.3 mL/min. […]

[2] = tested on: primary adrenocortical cells; assay: Seahorse OCR measurement in primary adrenocortical cells treated with SC-26196; type: cell-based, WT C57BL/6J mice; settings: SC-26196 10 µM, 18 h vs DMSO; n=4
Protocol: Primary adrenocortical cells were plated in 0.2 % gelatin-precoated XF96 cell culture microplate (Agilent) (8*10^4 cells/well) and treated for 18 h with DMSO or SC-26196 (10 µM). OCR was measured with a Seahorse XF96 Analyzer (Agilent Technologies). The experimental medium used was XF Base Medium supplemented with glucose (10 mM), pyruvate (1 mM) and glutamine (2 mM).

SMILES: N#CC(CCCN1CCN(/N=C/c2cccnc2)CC1)(c1ccccc1)c1ccccc1 [SC-26196]
- abundance of PC and PE containing PUFA acyl chains in mitochondrial fractions [1]: reduced
- lipids with saturated or monounsaturated acyl chains in mitochondrial fractions [1]: increased
- mitochondrial lipidome (PCA) ([1]; n=3): reprogramed the mitochondrial lipidome
- Cardiolipins in mitochondrial fractions ([1]; not shown): remained unaffected
- oxygen consumption rate (OCR) [2]: decreased
